Laboratory results as given in patent US3971779A, “7-[2-(5-Amino-1,3,4-thiadiazol-2-ylthio)acetamido]cephalosporins” (American Home Products Corporation, priority 1975, dated 1976).
≈ marks a conversion by molar mass, not a printed value. Where “and” joins values, the source holds several entries; their conditions need not be identical. Equal values may be shown once.

Experiments:
[1] = test system: Acinetobacter calcoaceticus 9957; experiment: agar serial dilution MIC; assay type: cell-based; details: Example 4, read-out: MIC
Experimental: (§1) A stock solution of 7-[2-(4,5-dihydro-5-imino-1,3,4-thiadiazol-2-ylthio)acetamido]cephalosporanic acid as the hydrobromic acid addition salt containing 2,500 μg. of the active moiety is prepared in phosphate buffer. Two fold serial dilutions are prepared with phosphate buffer. One milliliter (ml.) quantities of each dilution are incorporated in 9 ml. seen agar in sterile Petri plates. The hardened surface is innoculated with test organisms using a Steers replicating device. The plates are incubated at 35° C. for 18 hours.
(§2) The test organisms are Bacillus subtilis (BA SU) 6633; Staphylococcus aureus (ST AU) 6538P, Smith CHP, and 3-180; Mycobacterium smegmatis (MY SM) 10143; Neisseria catarrhalis (NE CA) 8193; Pseudonomas aeruginosa (PS AE) 10145; Escherichia coli (ES CO) 9637, and 920; Escherichia intermedia (ES IN) 65-1; Salmonella paratyphi (SA PA) 11737; Enterobacter aerogenes (EN AE) 13048; Klebsiella pneumoniae (KL PN) 10031; Bordetella bronchiseptica (BO BR) 4617; Proteus vulgaris (PR VU) 6896; and Herellea species (HE SP) 9955. These organisms are grown for 18 hours in Brain heart infusion at 35° C. Prior to use the cultures are diluted 10 fold with the infusion, except in the case of Mycobacterium. The latter is grown in Emerson's broth for 5 days at 28° C. in shaker flasks and used undiluted.
(§3) Following the procedure of Example 2 but substituting the organisms listed below the same preparation of 7-[2-(4,5-dihydro-5-imino-1,3,4-thiadiazol-2-ylthio)acetamido]cephalosporanic acid (Compound A) as used in Example 3, a third sample of the same compound, prepared as described in Example 1 (Compound B) and 7-[2-(5-acetamido-1,3,4-thiadiazol-2-ylthio)acetamido]cephalosporanic acid (Compound C) are tested to obtain the results shown: […]

Arizona arizonae 13314 = experiment: agar serial dilution MIC; assay type: cell-based; details: Salmonella enterica, 13314, Example 4
Experimental: as §1, §2, §3

[2] = test system: Citrobacter diversus 27156; experiment: agar serial dilution MIC; assay type: cell-based; details: Citrobacter koseri, Example 4
Experimental: as §1, §2, §3

[3] = test system: Citrobacter freundii 8090; experiment: agar serial dilution MIC; assay type: cell-based; details: Example 4
Experimental: as §1, §2, §3

Edwardsiella tarda 15947 = experiment: agar serial dilution MIC; assay type: cell-based; details: Edwardsiella tarda, 15947; Example 4; read-out: MIC
Experimental: as §1, §2, §3

[4] = test system: Enterobacter agglomerans 27155; experiment: agar serial dilution MIC; assay type: cell-based; details: Pantoea agglomerans, 27155; Example 4; read-out: MIC
Experimental: as §1, §2, §3

[5] = test system: Enterobacter cloacae 13047; experiment: agar serial dilution MIC; assay type: cell-based; details: Example 4
Experimental: as §1, §2, §3

[6] = test system: Enterobacter havniae 11604; experiment: agar serial dilution MIC; assay type: cell-based; details: Example 4
Experimental: as §1, §2, §3

Klebsiella ozaenae 11296 = experiment: agar serial dilution MIC; assay type: cell-based; details: Example 4, read-out: MIC
Experimental: as §1, §2, §3

[7] = test system: Klebsiella pneumoniae 13883; experiment: agar serial dilution MIC; assay type: cell-based; details: Klebsiella pneumoniae, 13883, Example 4
Experimental: as §1, §2, §3

[8] = test system: Klebsiella rhinoscleromatis 13884; experiment: agar serial dilution MIC; assay type: cell-based; details: Klebsiella pneumoniae, Example 4
Experimental: as §1, §2, §3

Proteus mirabilis 9921 = experiment: agar serial dilution MIC; assay type: cell-based; details: Example 4
Experimental: as §1, §2, §3

[9] = test system: Providencia alcalifaciens 9886; experiment: agar serial dilution MIC; assay type: cell-based; details: Example 4
Experimental: as §1, §2, §3

[10] = test system: Providencia stuartii 25825; experiment: agar serial dilution MIC; assay type: cell-based; details: Example 4
Experimental: as §1, §2, §3

[11] = test system: Salmonella cholera-suis 13312; experiment: agar serial dilution MIC; assay type: cell-based
Experimental: as §1, §2, §3

[12] = test system: Salmonella enteritidis 13076; experiment: agar serial dilution MIC; assay type: cell-based; details: Salmonella enterica, Example 4
Experimental: as §1, §2, §3

Salmonella typhi 19430 = experiment: agar serial dilution MIC; assay type: cell-based; details: Salmonella enterica
Experimental: as §1, §2, §3

[13] = test system: Serratia liquefaciens 27592; experiment: agar serial dilution MIC; assay type: cell-based; details: Example 4
Experimental: as §1, §2, §3

[14] = test system: Serratia marcescens 13880; experiment: agar serial dilution MIC; assay type: cell-based; details: Example 4
Experimental: as §1, §2, §3

Serratia rubidae 27593 = experiment: agar serial dilution MIC; assay type: cell-based; details: Example 4
Experimental: as §1, §2, §3

Shigella boydii 9207 = experiment: agar serial dilution MIC; assay type: cell-based; details: Example 4
Experimental: as §1, §2, §3

Shigella flexneri 12025 = experiment: agar serial dilution MIC; assay type: cell-based; details: Shigella flexneri, 12025, Example 4; read-out: MIC
Experimental: as §1, §2, §3

Shigella sonnei 11060 = experiment: agar serial dilution MIC; assay type: cell-based; details: Example 4
Experimental: as §1, §2, §3

[15] = test system: Staphylococcus aureaus CHP; experiment: mice infected intraperitoneally, single dose six hours post-infection, deaths and CD50; assay type: in vivo; details: for ED50: Staphylococcus
Experimental: Mice are infected intraperitoneally with a standardized suspension of Staphylococcus aureaus CHP in 5% gastric mucin. The animals are randomized. Six hours post-infection a single dose of the compound indicated is administered by the route indicated. The animals are observed for a 30 day period and deaths are recorded daily. The CD50 for 14 and 30 days as determined by the method of Reed and Muench, American Journal of Hygiene (1938), for each compound is tabulated:
7-[2-(5-Acetylamino-1,3,4-thiadiazol-2-ylthio)acetamido]cephalosporanic acid is tested as described in Example 5.

[16] = sc, 336 h, subcutaneous, 14 Days, single dose, mice
[17] = sc, 720 h, subcutaneous, 30 Days, single dose, mice
[18] = subcutaneous, 50 mg/kg., 14 Days
[19] = subcutaneous, 50 mg/kg., 30 Days
[20] = subcutaneous, 100 mg/kg., 14 Days
[21] = subcutaneous, 100 mg/kg., 30 Days
[22] = subcutaneous, 200 mg/kg., 14 Days
[23] = subcutaneous, 200 mg/kg., 30 Days
[24] = subcutaneous, 400 mg/kg., 14 Days
[25] = subcutaneous, 400 mg/kg., 30 Days
[26] = subcutaneous, 14 Days, single dose, mice, 20160 min

Structure (SMILES): CC(=O)Nc1nnc(SCC(=O)NC2C(=O)N3C(C(=O)O)=C(COC(C)=O)CSC23)s1 (stereo not drawn) [Compound C, 7-[2-(5-acetamido-1,3,4-thiadiazol-2-ylthio)acetamido]cephalosporanic acid, reference compound]
- MIC [1]: 250 µg/mL (≈ 513 µM)
- MIC (Arizona arizonae 13314): 31.3 µg/mL (≈ 64.2 µM)
- MIC [2]: 15.6 µg/mL (≈ 32 µM)
- MIC [3]: > 250 µg/mL
- MIC (Edwardsiella tarda 15947): 7.81 µg/mL (≈ 16 µM)
- MIC [4]: 7.81 µg/mL (≈ 16 µM)
- MIC [5]: > 250 µg/mL
- MIC [6]: 250 µg/mL (≈ 513 µM)
- MIC (Klebsiella ozaenae 11296): 7.81 µg/mL (≈ 16 µM)
- MIC [7]: 62.5 µg/mL (≈ 128 µM)
- MIC [8]: > 250 µg/mL
- MIC (Proteus mirabilis 9921): 15.6 µg/mL (≈ 32 µM)
- MIC [9]: > 250 µg/mL
- MIC [10]: 250 µg/mL (≈ 513 µM)
- MIC [11]: 15.6 µg/mL (≈ 32 µM)
- MIC [12]: 31.3 µg/mL (≈ 64.2 µM)
- MIC (Salmonella typhi 19430): 15.6 µg/mL (≈ 32 µM)
- MIC [13]: > 250 µg/mL
- MIC [14]: > 250 µg/mL
- MIC (Serratia rubidae 27593): > 250 µg/mL
- MIC (Shigella boydii 9207): 31.3 µg/mL (≈ 64.2 µM)
- MIC (Shigella flexneri 12025): 15.6 µg/mL (≈ 32 µM)
- MIC (Shigella sonnei 11060): 62.5 µg/mL (≈ 128 µM)
- ED50 ([15]; po, Example 6, mice): > 7.2 mg/kg
- oral activity against the test organism ([15]; oral, Example 6, mice): lack of significant oral activity

Structure (SMILES): Cc1nnc(SCC2=C(C(=O)O)N3C(=O)[C@@H](NC(=O)Cn4cnnn4)[C@H]3SC2)s1 [Cefazolin]
- ED50 [15, 16]: 6.41 mg/kg
- ED50 [15, 17]: 7.2 mg/kg
- Deaths / Total No. Treated [15, 18]: 10/10
- Deaths / Total No. Treated [15, 19]: 10/10
- Deaths / Total No. Treated [15, 20]: 10/10 and 8/10
- Deaths / Total No. Treated [15, 21]: 10/10
- Deaths / Total No. Treated [15, 22]: 10/10
- Deaths / Total No. Treated [15, 23]: 10/10
- Deaths / Total No. Treated [15, 24]: 4/10
- Deaths / Total No. Treated [15, 25]: 5/10
- CD50 [15, 26]: 5.82 mg/kg

Structure (SMILES): CCOc1ccc2ccccc2c1C(=O)N[C@@H]1C(=O)N2[C@@H]1SC(C)(C)[C@@H]2C(=O)O [Nafcillin]
- ED50 [15, 16]: 3.12 mg/kg
- ED50 [15, 17]: 3.9 mg/kg
- Deaths / Total No. Treated [15, 18]: 9/10 and 10/10
- Deaths / Total No. Treated [15, 19]: 9/10 and 10/10
- Deaths / Total No. Treated [15, 20]: 9/10 and 7/10
- Deaths / Total No. Treated [15, 21]: 10/10 and 7/10
- Deaths / Total No. Treated [15, 22]: 3/10 and 4/10
- Deaths / Total No. Treated [15, 23]: 4/10
- Deaths / Total No. Treated [15, 24]: 3/10 and 4/10
- Deaths / Total No. Treated [15, 25]: 4/10
- CD50 [15, 26]: 3.41 mg/kg
- CD50 ([15]; subcutaneous, 30 Days, single dose, mice, 43200 min): 3.41 mg/kg
